# Experimental data as given in ChEMBL document CHEMBL4311957, “Recent advances in natural antifungal flavonoids and their derivatives” (Bioorg Med Chem Lett, 2019).
# Tests used:
# Candida albicans [1] = assay: Synergistic antifungal activity against FLC-resistant Candida albicans after 24 to 72 hrs by checkerboard microbroth dilution method; assay type: functional
# Candida albicans [2] = assay: Synergistic antifungal activity against FLC-resistant Candida albicans after 24 to 72 hrs in presence of FLC by checkerboard microbroth dilution method; assay type: functional
# Candida parapsilosis [3] = assay: Synergistic antifungal activity against FLC-resistant Candida parapsilosis ATCC 22019 after 24 to 72 hrs by checkerboard microbroth dilution method; assay type: functional; settings: Lodderomyces parapsilosis
# Candida parapsilosis [4] = assay: Synergistic antifungal activity against FLC-resistant Candida parapsilosis ATCC 22019 after 24 to 72 hrs in presence of FLC by checkerboard microbroth dilution method; assay type: functional; settings: Lodderomyces parapsilosis
# Candida tropicalis [5] = assay: Synergistic antifungal activity against FLC-resistant Candida tropicalis 2718 after 24 to 72 hrs in presence of FLC by checkerboard microbroth dilution method; assay type: functional
# Nakaseomyces glabratus [6] = assay: Synergistic antifungal activity against FLC-resistant Candida glabrata ATCC1182 after 24 to 72 hrs in presence of FLC by checkerboard microbroth dilution method; assay type: functional
# Pichia kudriavzevii [7] = assay: Synergistic antifungal activity against FLC-resistant Candida krusei ATCC2340 after 24 to 72 hrs in presence of FLC by checkerboard microbroth dilution method; assay type: functional
# Cryptococcus neoformans [8] = assay: Synergistic antifungal activity against FLC-resistant Cryptococcus neoformans 32609 after 24 to 72 hrs in presence of FLC by checkerboard microbroth dilution method; assay type: functional
# Candida tropicalis [9] = assay: Synergistic antifungal activity against FLC-resistant Candida tropicalis 2718 after 24 to 72 hrs by checkerboard microbroth dilution method; assay type: functional
# Cryptococcus neoformans [10] = assay: Synergistic antifungal activity against FLC-resistant Cryptococcus neoformans 32609 after 24 to 72 hrs by checkerboard microbroth dilution method; assay type: functional
# Pichia kudriavzevii [11] = assay: Synergistic antifungal activity against FLC-resistant Candida krusei ATCC2340 after 24 to 72 hrs by checkerboard microbroth dilution method; assay type: functional
# Nakaseomyces glabratus [12] = assay: Synergistic antifungal activity against FLC-resistant Candida glabrata ATCC1182 after 24 to 72 hrs by checkerboard microbroth dilution method; assay type: functional
# Cryptococcus neoformans [13] = assay: Antifungal activity against Cryptococcus neoformans ATCC 90112 after 48 hrs by CLSI-based method; assay type: functional; settings: ATCC 90112, 48 h
# Cryptococcus neoformans [14] = assay: Antifungal activity against Cryptococcus neoformans ATCC 90112 after 48 hrs in presence of AmB by CLSI-based method; assay type: functional; settings: ATCC 90112, 48 h
# Candida albicans [15] = assay: Synergistic antifungal activity against Candida albicans after 24 hrs in presence of Miconazole by checkerboard method; assay type: functional, organism-based
# Candida tropicalis [16] = assay: Antifungal activity against FLC-resistant Candida tropicalis; assay type: functional
# [17] = Inhibition of fatty acid synthase in Trichophyton rubrum ATCC MYA3108
# Aspergillus fumigatus = assay: Antifungal activity against Aspergillus fumigatus; assay type: functional
# Trichophyton rubrum [18] = assay: Antifungal activity against Trichophyton rubrum deltaTruMDR2 by CLSI-based microdilution method; assay type: functional
# Candida albicans [19] = assay: Antifungal activity against Candida albicans; assay type: functional, organism-based
# Trichophyton rubrum [20] = assay: Antifungal activity against Trichophyton rubrum ATCC MYA3108 by CLSI-based microdilution method; assay type: functional
# Candida albicans [21] = assay: Antifungal activity against Candida albicans ATCC 44859 after 24 to 48 hrs; assay type: functional
smiles,measurement,setting,value
CC1(C)C=Cc2c(ccc3c2OC[C@@H](c2ccc(O)cc2O)C3)O1 [GLABRIDIN],MIC,Candida albicans [1],32 µg/mL
same,MIC,Candida albicans [2],64 µg/mL
same,MIC,Candida parapsilosis [3],64 µg/mL
same,MIC,Candida parapsilosis [4],1 to 16 µg/mL
same,MIC,Candida tropicalis [5],1 to 16 µg/mL
same,MIC,Nakaseomyces glabratus [6],1 to 16 µg/mL
same,MIC,Pichia kudriavzevii [7],1 to 16 µg/mL
same,MIC,Cryptococcus neoformans [8],16 to 64 µg/mL
same,MIC,Candida tropicalis [9],64 µg/mL
same,MIC,Cryptococcus neoformans [10],16 µg/mL
same,MIC,Pichia kudriavzevii [11],16 to 64 µg/mL
same,MIC,Nakaseomyces glabratus [12],64 µg/mL
COc1cc2oc(-c3ccc(O)c(O)c3)cc(=O)c2c(O)c1O,MIC,Cryptococcus neoformans [13],3.9 µg/mL
same,MIC,Cryptococcus neoformans [14],1 µg/mL
COc1ccc(-c2cc(=O)c3c(O)cc(OC)cc3o2)cc1 [APIGENIN DIMETHYLETHER],IC50,Candida albicans [15],51.6 µg/mL
O=C(O[C@@H]1Cc2c(O)cc(O)cc2O[C@@H]1c1cc(O)c(O)c(O)c1)c1cc(O)c(O)c(O)c1 [EPIGALOCATECHIN GALLATE],MIC,Candida tropicalis [16],≤ 1 µg/mL
OC(Cn1cncn1)(Cn1cncn1)c1ccc(F)cc1F [FLUCONAZOLE],IC50,[17],68.23 µg/mL
same,MIC,Aspergillus fumigatus,125 µg/mL
same,MIC,Trichophyton rubrum [18],63 µg/mL
same,MIC,Candida albicans [19],5.1 to 62.5 µg/mL
same,MIC,Trichophyton rubrum [20],63 µg/mL
same,MIC,Candida albicans [21],10.2 µM
